ChEMBL document CHEMBL1147368, “Constituents of Fevillea cordifolia: New Norcucurbitacin and Cucurbitacin Glycosides” (1993)

What was measured:
Format in all cases: functional
Rattus norvegicus [1] = experiment: Antiinflammatory activity in rat assessed as inhibition of carrageenan-induced paw edema at 100 mg/kg, po
Rattus norvegicus [2] = experiment: Antiinflammatory activity in rat assessed as inhibition of carrageenan-induced paw edema at 0.125 mg/kg, po
Rattus norvegicus [3] = experiment: Antiinflammatory activity in rat assessed as inhibition of carrageenan-induced paw edema at 2 mg/kg, po

In the case of `CC(=O)Oc1ccccc1C(=O)O` [ASPIRIN], the inhibition in vivo at 100 mg/kg (Rattus norvegicus [1]) is reported as 44%.

`C[C@H]1C[C@H]2[C@@H]3CCC4=CC(=O)C=C[C@]4(C)[C@@]3(F)[C@@H](O)C[C@]2(C)[C@@]1(O)C(=O)CO` [BETAMETHASONE] was tested, and the inhibition in vivo at 0.125 mg/kg (Rattus norvegicus [2]) was 63%.

Work on `COc1ccc2c(c1)c(CC(=O)O)c(C)n2C(=O)c1ccc(Cl)cc1` [INDOMETHACIN] yielded an inhibition in vivo at 2 mg/kg (Rattus norvegicus [3]) of 47%.
